Laboratory results taken from US20250188088A1, “COMPOUND AND USE THEREOF” (ONQUALITY PHARMACEUTICALS CHINA LTD., priority 2022, published 2025).

Tests used:
[1] = Plasma stability, mini pig plasma; assay type: in vitro ADME, Mini Pigs; conditions: 37° C.
Procedure: (§1) In addition, the plasma stability of these compounds was determined. Briefly, the determination method comprises the following steps: • 1) Thaw the frozen mixed plasma in a 37° C. water bath before testing, and then centrifuge at 4000 rpm for 5 min to remove blood clots; • 2) Add 98 μL blank plasma into each well of the 96-well reaction plate; • 3) In addition to the blank samples, add 2 μL of 100 μM working solution of test compound into each well; • 3) Incubate the reaction plate at 37° C. and start timing. Incubation times were 0, 10, 30, 60 and 120 minutes, respectively, with two replicate wells at each time point; • 4) Terminate the incubation at the corresponding time point, and add 400 μL of acetonitrile solution containing 200 ng/mL tolbutamide and 200 ng/mL labetalol to precipitate proteins; • 5) Shake each plate for 20 minutes, then centrifuge at 4000 rpm for 20 minutes, transfer 50 μL of supernatant to another 96-well plate, and dilute each sample with 100 μL of pure water; • 6) Analyze the sample by LC-MS/MS.

[2] = Plasma stability, human plasma; assay type: in vitro ADME, Humans; conditions: 37° C.
Procedure: as §1
The experiment results are as follows, and it can be seen from the test results that the selected compounds are easily metabolized to the target compound in human plasma.

[3] = system: rash caused by monoclonal EGFR inhibitors; experiment: Prevention of rash caused by monoclonal EGFR inhibitors, topical ointment, rat model; assay type: in vivo, SD rats
Procedure: An Experiment to Verify the Prevention of Rash Caused by Monoclonal EGFR Inhibitors with Topical Administration of Compounds of the Present Application on a Rat Animal Model After the SD rats were fed and adapted for one week (about 200 g), the rats were divided into 10 rats per group. The hair on the back of rats was gently removed with an electric razor one day before the experiment, and then an administration test was carried out. The experiments were divided into the administration group with the compound of the present application and the control group. The EGFR monoclonal antibody solution diluted with normal saline was injected via the tail vein twice a week, and the injection rate and time are shown in Table 2. After injection, the administration group applied the compound ointment of the present application on the backs (about 3 cm*3 cm) of rats every day, and the control group applied blank matrix ointment (about 0.5 g) to the backs (about 3 cm*3 cm) of rats every day. After drug application, the rats were fixed with a fixed cyclinder for 4 h; after that, the rats were released and the residual drug at the application site was wiped off with clear water. Monoclonal antibody EGFR inhibitors were injected via the tail vein twice a week, and the compound of the present application and blank ointment were applied once a day until obvious rashes appeared in the control group. […] Table 2 lists the animal experiment combinations of various monoclonal antibody EGFR inhibitors and the compound ointment of the present application, as well as the corresponding experiment results (wherein, the value in the control rate column=the number of rats whose rash is milder in the administration group than that in the control group/the total number of rats in the administration group×100%).

[4] = system: rash caused by small molecule EGFR inhibitors; experiment: Prevention of rash caused by small molecule EGFR inhibitors, topical ointment, rat model; assay type: in vivo, SD rats
Text: An Experiment to Verify the Prevention of Rash Caused by Small Molecule EGFR Inhibitors with Topical Administration of Compounds of the Present Application on a Rat Animal Model A rat animal model was established. After daily gavage of a small molecule EGFR inhibitor to female SD rats for […], the rats developed extensive rashes on their backs several days later (picture shown in FIG. 1). […] Similar to humans, rats developed skin rashes on their faces and bodies after oral administration of small molecule EGFR inhibitors. Both of them had the same etiology and very similar symptoms. Therefore, rats are a proper animal model for mimicking EGFR inhibitor-induced rash. After the SD rats were fed and adapted for one week (about 200 g), the rats were divided into 10 rats per group. The hair on the back of rats was gently removed with an electric razor one day before the experiment, and then an intragastric administration test was carried out. EGFR inhibitors were dissolved in a sterile aqueous solution, and diluted with PBS buffer; the amount of each gavage was not more than 2 mL, and the dosage was shown in Table 1. The experiment comprised the administration group and the control group. After intragastric administration, apply the ointment (type and concentration are shown in Table 1) of the compound used in the present application to the backs (about 3 cm*3 cm) of rats in the administration group; apply blank matrix ointment (about 0.5 g) to the backs (about 3 cm*3 cm) of rats in the control group; fix the rats with a fixed cylinder for about 4 hours after drug application, release the rats after 4 hours, wipe off the residual drug at the application site with clean water, and put them back into the cage. The frequency of intragastric administration of EGFR inhibitors is shown in Table 1, but the compounds of the present application and blank matrix ointment are applied only once a day. The intragastric administration and application test were repeated daily until an obvious rash appeared in the control group. […] Table 1 lists the animal experiment combination of various small molecule EGFR inhibitors and the compound ointment of the present application, as well as the corresponding experiment results (wherein, the value in the control rate column=the number of rats whose rash is milder in the administration group than that in the control group/the total number of rats in the administration group×100%).

[5] = system: rash caused by monoclonal EGFR inhibitors; experiment: Treatment of rash caused by monoclonal EGFR inhibitors, topical ointment, rat model; assay type: in vivo; conditions: SD rats
Procedure: An Experiment to Verify the Treatment of Rash Caused by Monoclonal EGFR Inhibitors with Topical Administration of Compounds of the Present Application on a Rat Animal Model After the SD rats were fed and adapted for one week (about 200 g), the rats were divided into 10 rats per group. The hair on the back of rats was gently removed with an electric razor one day before the experiment, and then an administration test was carried out. The EGFR monoclonal antibody solution diluted with normal saline was injected via tail vein twice a week, and the injection rate and time were shown in Table 4; the treatment experiment was started at the time point when rats developed a rash after continuous administration for 1-2 weeks. The experiments were divided into the administration group with the compound of the present application and the control group. During the treatment experiment, monoclonal antibody EGFR inhibitors were injected twice a week. the administration group applied the compound ointment of the present application on the back (about 3 cm*3 cm) of rats every day, and the control group applied blank matrix ointment on the back (about 3 cm*3 cm); after application, the rats were fixed with a fixed cyclinder for about 4 hours, and then the rats were released, with the residual drug at the application site wiped off with clean water, and put back into the cage. […] Table 4 lists the animal experiment combinations of monoclonal antibody EGFR inhibitors and the compound ointment of the present application, as well as the corresponding experiment results (wherein, the value in the control rate column=the number of rats whose rash is milder in the administration group than that in the control group/the total number of rats in the administration group×100%).

Row | Compound | half-life at 2 µM [1] | % Retained ([1]; 0 min) | % Retained ([1]; 10 min) | % Retained ([1]; 30 min) | % Retained ([1]; 60 min) | % Retained ([1]; 120 min) | half-life at 2 µM [2] | % Retained ([2]; 0 min) | % Retained ([2]; 10 min) | % Retained ([2]; 30 min) | % Retained ([2]; 60 min) | % Retained ([2]; 120 min) | further results
1 | CC(C)C(=O)OCCN(C)C(=O)n1ccc2c(N(C)[C@H]3CN(C(=O)CC#N)CC[C@H]3C)ncnc21 [Compound A19] | 24.3 min | 100.0% | 73.0% | 46.2% | 18.5% | 3.3% | 2.6 min | 100.0% | 5.1% | 0.0% | 0.0% | 0.0% | –
2 | CCCCC(=O)OCCN(C)C(=O)n1ccc2c(N(C)[C@H]3CN(C(=O)CC#N)CC[C@H]3C)ncnc21 [Compound A22] | 6.3 min | 100.0% | 25.5% | 1.8% | 0.1% | 0.1% | 3.1 min | 100.0% | 4.5% | 0.1% | 0.1% | 0.0% | Control Rate ([3]; Cetuximab 100 mg/kg twice a week via tail vein, ointment 0.3 wt% once a day, 10 days): 20%; Control Rate ([3]; Cetuximab 100 mg/kg twice a week via tail vein, ointment 5.0 wt% once a day, 10 days): 40%; Control Rate ([3]; Panitumumab 10 mg/kg twice a week via tail vein, ointment 1.0 wt% once a day, 14 days): 30%; Control Rate ([3]; Panitumumab 10 mg/kg twice a week via tail vein, ointment 10.0 wt% once a day, 14 days): 65%
3 | C[C@@H]1CCN(C(=O)CC#N)C[C@@H]1N(C)c1ncnc2c1ccn2C(=O)N(C)CCOC(=O)C(C)(C)C [Compound A23] | 41.1 min | 100.0% | 75.1% | 51.3% | 39.2% | 12.0% | 20.8 min | 100.0% | 60.2% | 40.1% | 18.5% | 1.6% | –
4 | CN(CCOC(=O)C1CCCCC1)C(=O)n1ccc2c(-c3cnn([C@@H](CC#N)C4CCCC4)c3)ncnc21 [Compound A39] | – | – | – | – | – | – | – | – | – | – | – | – | Control Rate ([4]; BPI-7711 60 mg/kg once a day, ointment 5.0 wt% (A14: printed '^ 5%%') once a day, 12 days): 90%; Control Rate ([4]; EAI045 80 mg/kg once a day, ointment 1.0 wt% once a day, 11 days): 20%; Control Rate ([4]; EAI045 80 mg/kg once a day, ointment 5.0 wt% once a day, 11 days): 65%; Control Rate ([4]; Osimertinib 60 mg/kg twice a day, ointment 0.1 wt% once a day, 10 days): 10%; Control Rate ([4]; Osimertinib 60 mg/kg twice a day, ointment 3.0 wt% once a day, 10 days): 30%; Control Rate ([4]; Zorifertinib 60 mg/kg once a day, ointment 5.0 wt% once a day, 14 days): 40%; Control Rate ([5]; Cetuximab 100 mg/kg twice a week via tail vein, ointment 0.1 wt%, 10 days of drug application): 20%; Control Rate ([5]; Cetuximab 100 mg/kg twice a week via tail vein, ointment 1.0 wt%, 10 days of drug application): 40%; Control Rate ([5]; Cetuximab 100 mg/kg twice a week via tail vein, ointment 5.0 wt%, 10 days of drug application): 80%; Control Rate ([5]; Cetuximab 100 mg/kg twice a week via tail vein, ointment 10.0 wt%, 10 days of drug application): 100%; Control Rate ([5]; Panitumumab 6 mg/kg twice a week via tail vein, ointment 0.1 wt%, 8 days of drug application): 20%; Control Rate ([5]; Panitumumab 6 mg/kg twice a week via tail vein, ointment 1.0 wt%, 8 days of drug application): 30%; Control Rate ([5]; Panitumumab 6 mg/kg twice a week via tail vein, ointment 5.0 wt%, 8 days of drug application): 60%; Control Rate ([5]; Panitumumab 6 mg/kg twice a week via tail vein, ointment 10.0 wt%, 8 days of drug application): 70%
